Results from patent US4414207A, “Rutin poly(H-)sulfate salts and related compounds” (American Cyanamid Company, priority 1982, dated 1983).

How the values were obtained:
[1] = test system: shunt pathway activated by cobra venom factor; experiment: Test Code 036 (C-Shunt inhibitor); assay type: cell-based; conditions: fragile human erythrocytes in autologous serum
Excerpt: (§1) An active inhibitor protects C2 from C1 and C4; (ii) Test Code 035 (C3-C9 inhibitor)--This test determines the ability of the late components of human complement (C3-C9) to lyse EAC 142 in the presence of appropriate dilutions of the test compound. An active inhibitor protects EAC 142 from lysis by human C3-C9; (iii) Test Code 036 (C-Shunt inhibitor)--In this test human erythrocytes rendered fragile are lysed in autologous serum via the shunt pathway activated by cobra venom factor in the presence of appropriate dilutions of the test compound. Inhibition of the shunt pathway results in failure of lysis; (iv) Forssman Vasculitis Test--Here, the well known complement dependent lesions, Forssman vasculitis, is produced in guinea pigs by intradermal injection of rabbit anti-Forssman antiserum. The lesion is measured in terms of diameter, edema and hemorrhage and the extent to which a combined index of these is inhibited by prior intraperitoneal injection of the test compound at 200 mg/kg is then reported, unless otherwise stated; (v) Forssman Shock Test--Lethal shock is produced in guinea pigs by an i.v. injection of anti-Forssman antiserum and the harmonic mean death time of treated guinea pigs is compared with that of simultaneous controls; (vi) Complement Level Reduction Test--In this test, the above dosed guinea pigs, or others, are bled for serum and the complement level is determined in undiluted serum by the capillary tube method of U.S. Pat. No. 3,876,376 and compared to undosed control guinea pigs; and (vii) Cap 50 Test--Here, appropriate amounts of the test compound are added to a pool of guinea pig serum in vitro, after which the undiluted serum capillary tube assay referred to above is run. The concentration of compound inhibiting 50% is reported, (viii) Guinea Pig Intraperitoneal Test (GPIP)--Guinea Pigs weighing about 300 g. are dosed intraperitoneally (i.p.) with 200 mg/kg of the test compound dissolved in saline and adjusted to pH 7-8. […] Percent inhibition are calculated by comparison with simultaneous controls. […]

[2] = biological target: T1, activated human C1 (Homo sapiens, UniProt P09871); experiment: Test Code 026 (C1 inhibitor); assay type: biochemical; conditions: serial dilution assay, twofold dilutions; higher well number indicates higher activity
T1 sequence (P09871 438-688 limits assumed): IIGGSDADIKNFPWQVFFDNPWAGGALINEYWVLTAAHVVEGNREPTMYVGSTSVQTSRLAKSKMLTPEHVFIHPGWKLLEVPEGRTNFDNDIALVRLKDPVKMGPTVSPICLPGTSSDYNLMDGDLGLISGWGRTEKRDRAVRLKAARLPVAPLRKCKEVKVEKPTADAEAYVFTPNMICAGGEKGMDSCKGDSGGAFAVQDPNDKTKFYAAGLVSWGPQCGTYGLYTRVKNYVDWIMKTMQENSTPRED
T1 sequence (P09871 16-437 limits assumed): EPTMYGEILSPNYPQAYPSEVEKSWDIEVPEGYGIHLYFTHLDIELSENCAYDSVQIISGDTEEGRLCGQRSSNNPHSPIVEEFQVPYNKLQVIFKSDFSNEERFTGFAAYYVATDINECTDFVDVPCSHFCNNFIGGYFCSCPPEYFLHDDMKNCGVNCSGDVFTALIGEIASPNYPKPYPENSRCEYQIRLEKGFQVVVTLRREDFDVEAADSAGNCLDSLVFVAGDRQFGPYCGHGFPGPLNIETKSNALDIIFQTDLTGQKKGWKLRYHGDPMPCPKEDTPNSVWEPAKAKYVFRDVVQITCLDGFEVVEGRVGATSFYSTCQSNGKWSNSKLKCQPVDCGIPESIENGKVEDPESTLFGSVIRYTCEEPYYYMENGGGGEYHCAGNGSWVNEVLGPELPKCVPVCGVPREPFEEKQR
Excerpt: as §1

[3] = test system: late components of human complement (C3-C9); experiment: Test Code 035 (C3-C9 inhibitor); assay type: biochemical; conditions: lysis of EAC 142 by human C3-C9
Excerpt: as §1

[4] = test system: complement activity of sera; experiment: Guinea Pig Intraperitoneal Test (GPIP); assay type: in vivo; conditions: 200 mg/kg i.p.
Excerpt: as §1

[5] = test system: guinea pigs; experiment: Forssman Shock Test; assay type: in vivo, guinea pig; conditions: i.v. anti-Forssman antiserum, Control 3.3
Excerpt: (§2) An active inhibitor protects C2 from C1 and C4; (ii) Test Code 035 (C3-C9 inhibitor)--This test determines the ability of the late components of human complement (C3-C9) to lyse EAC 142 in the presence of appropriate dilutions of the test compound. An active inhibitor protects EAC 142 from lysis by human C3-C9; (iii) Test Code 036 (C-Shunt inhibitor)--In this test human erythrocytes rendered fragile are lysed in autologous serum via the shunt pathway activated by cobra venom factor in the presence of appropriate dilutions of the test compound. Inhibition of the shunt pathway results in failure of lysis; (iv) Forssman Vasculitis Test--Here, the well known complement dependent lesions, Forssman vasculitis, is produced in guinea pigs by intradermal injection of rabbit anti-Forssman antiserum. […] Percent inhibition are calculated by comparison with simultaneous controls. […]

[6] = test system: complement; experiment: complement inhibiting activity using the tests disclosed herein; conditions: stated in words
Excerpt: as §2

## C[C@@H]1O[C@@H](OC[C@H]2O[C@@H](Oc3c(-c4ccc(O)c(O)c4)oc4cc(O)cc(O)c4c3=O)[C@H](O)[C@@H](O)[C@@H]2O)[C@H](O)[C@H](O)[C@H]1O [Rutin]
[1]
  036 (C-Shunt inhibitor): N
[2]
  026 (C1 inhibitor), activity in wells: N
[3]
  035 (C3-C9 inhibitor): N

## Rutin poly(H-)sulfate, sodium salt
[1]
  036 (C-Shunt inhibitor): N
[2]
  026 (C1 inhibitor), activity in wells: +7 wells
[4]; serum complement 30 minutes after injection
  In vivo activity (Guinea Pig) Intraperitoneal % Inhibition, 30 minutes: -79%
[4]; serum complement 60 minutes after injection
  In vivo activity (Guinea Pig) Intraperitoneal % Inhibition, 60 minutes: -89%
[4]; serum complement 120 minutes after injection
  In vivo activity (Guinea Pig) Intraperitoneal % Inhibition, 120 minutes: -89%
[3]
  035 (C3-C9 inhibitor): N
[5]
  Forssman Shock (harmonic mean death time): 17.2 min

## Rutin poly(H-)sulfate, sodium salt (original source commercial `Rutin water soluble`)
[6]
  complement inhibiting activity: highly active

## Rutin poly(H-)sulfate, trimethylamine salt
[1]
  036 (C-Shunt inhibitor): N
[2]
  026 (C1 inhibitor), activity in wells: +2 wells
[3]
  035 (C3-C9 inhibitor): N
